From the NIST ThermoML archive (doi:10.1016/j.tca.2017.02.015)
Numbers after ± are expanded uncertainties.

Tests used:
[1] = molar heat capacity at constant pressure; conditions: Liquid, Flow calorimetry
[2] = molar heat capacity at constant pressure; xn = mol fraction of the nth substance listed; conditions: Liquid, Flow calorimetry

CCCCCCCCCC(=O)OC [methyl decanoate]
[1]
Conditions | molar heat capacity at constant pressure [J/K/mol]
313.71 K, 100 kPa | 383.9 ± 3.9
313.82 K, 4070 kPa | 382.1 ± 3.9
313.83 K, 8030 kPa | 380.5 ± 3.8
313.99 K, 12010 kPa | 378.5 ± 3.8
314.01 K, 16140 kPa | 376.6 ± 3.8
324.79 K, 100 kPa | 387.6 ± 3.9
324.79 K, 4070 kPa | 386 ± 3.9
325.01 K, 8030 kPa | 384.4 ± 3.9
325.06 K, 12010 kPa | 382.5 ± 3.9
325.2 K, 16140 kPa | 379.3 ± 3.8
334.12 K, 100 kPa | 393.2 ± 4
334.33 K, 8030 kPa | 388.3 ± 3.9
334.53 K, 4070 kPa | 390.3 ± 3.9
334.6 K, 12010 kPa | 386.2 ± 3.9
334.84 K, 16140 kPa | 384.2 ± 3.9

CCCCCCCCCCCC(=O)OC [methyl dodecanoate]
[1]
Conditions | molar heat capacity at constant pressure [J/K/mol]
313.97 K, 100 kPa | 442.6 ± 4.5
313.99 K, 4040 kPa | 441.6 ± 4.5
314.06 K, 8070 kPa | 439.5 ± 4.4
314.09 K, 12160 kPa | 438.3 ± 4.4
314.14 K, 16180 kPa | 436.9 ± 4.4
323.84 K, 12090 kPa | 444.8 ± 4.5
323.88 K, 100 kPa | 449.5 ± 4.5
323.93 K, 4070 kPa | 447.2 ± 4.5
323.94 K, 16080 kPa | 443.3 ± 4.5
324.01 K, 8060 kPa | 445.8 ± 4.5
333.88 K, 100 kPa | 456.4 ± 4.6
333.96 K, 4050 kPa | 453.6 ± 4.6
334 K, 8050 kPa | 452.1 ± 4.6
334.05 K, 12060 kPa | 450.5 ± 4.6
334.11 K, 16170 kPa | 448 ± 4.5

CCCCCCCCCC(=O)OC [methyl decanoate] + CCCCCCCCCCCC(=O)OC
[2], x2 = 0
Conditions | molar heat capacity at constant pressure [J/K/mol]
313.71 K, 100 kPa | 383.9 ± 3.9
313.82 K, 4070 kPa | 382.1 ± 3.9
313.83 K, 8030 kPa | 380.5 ± 3.8
313.99 K, 12010 kPa | 378.5 ± 3.8
314.01 K, 16140 kPa | 376.6 ± 3.8
324.79 K, 100 kPa | 387.6 ± 3.9
324.79 K, 4070 kPa | 386 ± 3.9
325.01 K, 8030 kPa | 384.4 ± 3.9
325.06 K, 12010 kPa | 382.5 ± 3.9
325.2 K, 16140 kPa | 379.3 ± 3.8
334.12 K, 100 kPa | 393.2 ± 4
334.33 K, 8030 kPa | 388.3 ± 3.9
334.53 K, 4070 kPa | 390.3 ± 3.9
334.6 K, 12010 kPa | 386.2 ± 3.9
334.84 K, 16140 kPa | 384.2 ± 3.9

CCCCCCCCCCCC(=O)OC [methyl dodecanoate] + CCCCCCCCCC(=O)OC
[2]
Conditions | molar heat capacity at constant pressure [J/K/mol]
313.71 K, 100 kPa, x1 = 0.5001 | 414.9 ± 4.2
313.82 K, 4060 kPa, x1 = 0.5001 | 413.3 ± 4.2
313.83 K, 8100 kPa, x1 = 0.5001 | 412.3 ± 4.2
313.97 K, 100 kPa, x1 = 1 | 442.6 ± 4.5
313.99 K, 4040 kPa, x1 = 1 | 441.6 ± 4.5
313.99 K, 12140 kPa, x1 = 0.5001 | 410.1 ± 4.1
314.01 K, 100 kPa, x1 = 0.6999 | 426.4 ± 4.3
314.01 K, 16150 kPa, x1 = 0.5001 | 408.9 ± 4.1
314.06 K, 8070 kPa, x1 = 1 | 439.5 ± 4.4
314.08 K, 4080 kPa, x1 = 0.6999 | 425.1 ± 4.3
314.09 K, 12160 kPa, x1 = 1 | 438.3 ± 4.4
314.14 K, 16180 kPa, x1 = 1 | 436.9 ± 4.4
314.17 K, 12080 kPa, x1 = 0.6999 | 421.2 ± 4.3
314.18 K, 8140 kPa, x1 = 0.6999 | 422.7 ± 4.3
314.21 K, 16150 kPa, x1 = 0.6999 | 419.4 ± 4.2
314.37 K, 100 kPa, x1 = 0.3001 | 403.7 ± 4.1
314.53 K, 4090 kPa, x1 = 0.3001 | 402.2 ± 4.1
314.71 K, 8010 kPa, x1 = 0.3001 | 400.6 ± 4
314.95 K, 12020 kPa, x1 = 0.3001 | 397.7 ± 4
315.06 K, 16080 kPa, x1 = 0.3001 | 395.6 ± 4
323.53 K, 100 kPa, x1 = 0.3001 | 412 ± 4.2
323.58 K, 4100 kPa, x1 = 0.3001 | 409.5 ± 4.1
323.69 K, 8070 kPa, x1 = 0.3001 | 406.9 ± 4.1
323.84 K, 12080 kPa, x1 = 0.3001 | 403.9 ± 4.1
323.84 K, 12090 kPa, x1 = 1 | 444.8 ± 4.5
323.88 K, 100 kPa, x1 = 1 | 449.5 ± 4.5
323.93 K, 4070 kPa, x1 = 1 | 447.2 ± 4.5
323.94 K, 16080 kPa, x1 = 1 | 443.3 ± 4.5
324.01 K, 8060 kPa, x1 = 1 | 445.8 ± 4.5
324.05 K, 100 kPa, x1 = 0.6999 | 435.5 ± 4.4
324.08 K, 4120 kPa, x1 = 0.6999 | 433.4 ± 4.4
324.13 K, 8050 kPa, x1 = 0.6999 | 431.3 ± 4.4
324.19 K, 12080 kPa, x1 = 0.6999 | 428.2 ± 4.3
324.24 K, 16120 kPa, x1 = 0.6999 | 426.4 ± 4.3
324.39 K, 16190 kPa, x1 = 0.3001 | 400.5 ± 4
324.79 K, 100 kPa, x1 = 0.5001 | 424.4 ± 4.3
324.79 K, 4150 kPa, x1 = 0.5001 | 421.6 ± 4.3
325.01 K, 8140 kPa, x1 = 0.5001 | 418.7 ± 4.2
325.06 K, 12110 kPa, x1 = 0.5001 | 416.1 ± 4.2
325.2 K, 16230 kPa, x1 = 0.5001 | 413.7 ± 4.2
333.55 K, 100 kPa, x1 = 0.3001 | 418.3 ± 4.2
333.71 K, 100 kPa, x1 = 0.6999 | 442.8 ± 4.5
333.76 K, 4130 kPa, x1 = 0.3001 | 415.8 ± 4.2
333.79 K, 8110 kPa, x1 = 0.3001 | 413.5 ± 4.2
333.88 K, 100 kPa, x1 = 1 | 456.4 ± 4.6
333.96 K, 4050 kPa, x1 = 1 | 453.6 ± 4.6
333.97 K, 12160 kPa, x1 = 0.6999 | 434.7 ± 4.4
333.98 K, 4150 kPa, x1 = 0.6999 | 440.9 ± 4.5
334 K, 8050 kPa, x1 = 1 | 452.1 ± 4.6
334.03 K, 12080 kPa, x1 = 0.3001 | 411.7 ± 4.2
334.04 K, 8040 kPa, x1 = 0.6999 | 439 ± 4.4
334.04 K, 16170 kPa, x1 = 0.6999 | 431.9 ± 4.4
334.05 K, 12060 kPa, x1 = 1 | 450.5 ± 4.6
334.11 K, 16170 kPa, x1 = 1 | 448 ± 4.5
334.12 K, 100 kPa, x1 = 0.5001 | 431.7 ± 4.4
334.21 K, 16110 kPa, x1 = 0.3001 | 408.4 ± 4.1
334.33 K, 8140 kPa, x1 = 0.5001 | 425.5 ± 4.3
334.53 K, 4120 kPa, x1 = 0.5001 | 428.8 ± 4.3
334.6 K, 12200 kPa, x1 = 0.5001 | 423.1 ± 4.3
334.84 K, 16030 kPa, x1 = 0.5001 | 420.7 ± 4.3
